Results from ChEMBL document CHEMBL1201862, “PubChem BioAssay data set” (2004).
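These data come from cells grown in 96-well plates and exposed to compound for 48 hours at five concentrations. GI50 marks 50% less growth.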 Calls of active or inactive are those of the source. No stated cut-off is given here; in the data, active = GI50 up to about 1.1 µM and inactive = higher.

Tests used:
Assay in all cases: inhibition of tumour cell growth, NCI panel, 48 h
OVCAR-3 = tested on: OVCAR-3
SNB-19 = tested on: SNB-19
K562 = tested on: K562
MDA-N = tested on: MDA-N
NCI/ADR-RES = tested on: NCI/ADR-RES
SW-620 = tested on: SW-620
NCI-H226 = tested on: NCI-H226
MCF7 = tested on: MCF7
OVCAR-5 = tested on: OVCAR-5
SN12C = tested on: SN12C
UACC-257 = tested on: UACC-257
U-251 = tested on: U-251
RXF 393 = tested on: RXF 393
NCI-H460 = tested on: NCI-H460
HL-60 = tested on: HL-60
MDA-MB-435 = tested on: MDA-MB-435
CAKI-1 = tested on: CAKI-1
UACC-62 = tested on: UACC-62
Hs-578T = tested on: Hs-578T
OVCAR-8 = tested on: OVCAR-8
IGROV-1 = tested on: IGROV-1
A549 = tested on: A549
ACHN = tested on: ACHN
UO-31 = tested on: UO-31
Malme-3M = tested on: Malme-3M
HT-29 = tested on: HT-29
M14 = tested on: M14
RPMI-8226 = tested on: RPMI-8226
SK-OV-3 = tested on: SK-OV-3
PC-3 = tested on: PC-3
786-0 = tested on: 786-0
TK-10 = tested on: TK-10
NCI-H23 = tested on: NCI-H23
COLO 205 = tested on: COLO 205
HCC 2998 = tested on: HCC 2998
HCT-15 = tested on: HCT-15
HCT-116 = tested on: HCT-116
NCI-H522 = tested on: NCI-H522
SF-539 = tested on: SF-539
A498 = tested on: A498
SR = tested on: SR
SNB-75 = tested on: SNB-75
DU-145 = tested on: DU-145
SF-268 = tested on: SF-268
MDA-MB-231 = tested on: MDA-MB-231
MOLT-4 = tested on: MOLT-4
HOP-62 = tested on: HOP-62
KM12 = tested on: KM12
OVCAR-4 = tested on: OVCAR-4
BT-549 = tested on: BT-549
LOX IMVI = tested on: LOX IMVI
T47D = tested on: T47D
SK-MEL-5 = tested on: SK-MEL-5
EKVX = tested on: EKVX
HOP-92 = tested on: HOP-92
SK-MEL-2 = tested on: SK-MEL-2
SF-295 = tested on: SF-295
SK-MEL-28 = tested on: SK-MEL-28
CCRF-CEM = tested on: CCRF-CEM
DLD-1 = tested on: DLD-1
KM-20L2 = tested on: KM-20L2
M19-MEL = tested on: M19-MEL
LXFL 529 = tested on: LXFL 529
SNB-78 = tested on: SNB-78

CC1=NN2C(=N)/C(=C/c3ccc(F)cc3)C(=O)N=C2S1
GI50 (OVCAR-3): > 100 µM (inactive)
GI50 (SNB-19): > 100 µM (inactive)
GI50 (K562): > 100 µM (inactive)
GI50 (MDA-N): > 100 µM (inactive)
GI50 (NCI/ADR-RES): 13 µM (inactive)
GI50 (SW-620): > 100 µM (inactive)
GI50 (NCI-H226): > 100 µM (inactive)
GI50 (MCF7): > 100 µM (inactive)
GI50 (OVCAR-5): > 100 µM (inactive)
GI50 (SN12C): > 100 µM (inactive)
GI50 (UACC-257): > 100 µM (inactive)
GI50 (U-251): > 100 µM (inactive)
GI50 (RXF 393): > 100 µM (inactive)
GI50 (NCI-H460): > 100 µM (inactive)
GI50 (HL-60): > 100 µM (inactive)
GI50 (MDA-MB-435): > 100 µM (inactive)
GI50 (CAKI-1): > 100 µM (inactive)
GI50 (UACC-62): > 100 µM (inactive)
GI50 (Hs-578T): > 100 µM (inactive)
GI50 (OVCAR-8): > 100 µM (inactive)
GI50 (IGROV-1): > 100 µM (inactive)
GI50 (A549): > 100 µM (inactive)
GI50 (ACHN): > 100 µM (inactive)
GI50 (UO-31): > 100 µM (inactive)
GI50 (Malme-3M): > 100 µM (inactive)
GI50 (HT-29): > 100 µM (inactive)
GI50 (M14): > 100 µM (inactive)
GI50 (RPMI-8226): > 100 µM (inactive)
GI50 (SK-OV-3): > 100 µM (inactive)
GI50 (PC-3): > 100 µM (inactive)
GI50 (786-0): > 100 µM (inactive)
GI50 (TK-10): > 100 µM (inactive)
GI50 (NCI-H23): > 100 µM (inactive)
GI50 (COLO 205): > 100 µM (inactive)
GI50 (HCC 2998): 44.4 µM (inactive)
GI50 (HCT-15): > 100 µM
GI50 (HCT-116): > 100 µM (inactive)
GI50 (NCI-H522): > 100 µM (inactive)
GI50 (SF-539): > 100 µM (inactive)
GI50 (A498): > 100 µM (inactive)
GI50 (SR): 69.8 µM (inactive)
GI50 (SNB-75): > 100 µM (inactive)
GI50 (DU-145): > 100 µM (inactive)
GI50 (SF-268): > 100 µM (inactive)
GI50 (MDA-MB-231): > 100 µM (inactive)
GI50 (MOLT-4): > 100 µM (inactive)
GI50 (HOP-62): > 100 µM (inactive)
GI50 (KM12): > 100 µM (inactive)
GI50 (OVCAR-4): > 100 µM (inactive)
GI50 (BT-549): > 100 µM (inactive)
GI50 (LOX IMVI): > 100 µM (inactive)
GI50 (T47D): > 100 µM (inactive)
GI50 (SK-MEL-5): > 100 µM (inactive)
GI50 (EKVX): > 100 µM (inactive)
GI50 (HOP-92): 47.9 µM (inactive)
GI50 (SK-MEL-2): > 100 µM (inactive)
GI50 (SF-295): > 100 µM (inactive)
GI50 (SK-MEL-28): > 100 µM (inactive)
GI50 (CCRF-CEM): > 100 µM (inactive)

O=c1[nH]nc(-c2ccccc2)n1/N=C/c1ccccc1Cl
GI50 (OVCAR-3): 23.8 µM (inactive)
GI50 (SNB-19): > 100 µM (inactive)
GI50 (K562): 31.3 µM (inactive)
GI50 (MDA-N): 33.1 µM (inactive)
GI50 (NCI/ADR-RES): 19.8 µM (inactive)
GI50 (SW-620): 50.7 µM (inactive)
GI50 (NCI-H226): 30.8 µM (inactive)
GI50 (MCF7): 31.8 µM (inactive)
GI50 (OVCAR-5): > 100 µM (inactive)
GI50 (SN12C): 48.8 µM (inactive)
GI50 (UACC-257): 64 µM (inactive)
GI50 (U-251): 38.5 µM (inactive)
GI50 (RXF 393): 25.4 µM (inactive)
GI50 (NCI-H460): 13 µM (inactive)
GI50 (HL-60): 19.5 µM (inactive)
GI50 (MDA-MB-435): 19.1 µM (inactive)
GI50 (CAKI-1): 36.6 µM (inactive)
GI50 (UACC-62): 20 µM (inactive)
GI50 (Hs-578T): 16.2 µM (inactive)
GI50 (OVCAR-8): 39.1 µM (inactive)
GI50 (IGROV-1): 21.8 µM (inactive)
GI50 (A549): 34.1 µM (inactive)
GI50 (ACHN): 52.6 µM (inactive)
GI50 (UO-31): 42.8 µM (inactive)
GI50 (Malme-3M): 20.3 µM (inactive)
GI50 (HT-29): 28.9 µM (inactive)
GI50 (M14): 35.4 µM (inactive)
GI50 (RPMI-8226): 21.1 µM (inactive)
GI50 (SK-OV-3): 48.8 µM (inactive)
GI50 (PC-3): 15.1 µM (inactive)
GI50 (786-0): 32.5 µM (inactive)
GI50 (TK-10): 75.9 µM (inactive)
GI50 (NCI-H23): 34.7 µM (inactive)
GI50 (COLO 205): 37.1 µM (inactive)
GI50 (HCC 2998): 36.2 µM (inactive)
GI50 (HCT-15): 31.6 µM
GI50 (HCT-116): 33.9 µM (inactive)
GI50 (NCI-H522): 18 µM (inactive)
GI50 (SF-539): 39.3 µM (inactive)
GI50 (A498): 30.1 µM (inactive)
GI50 (SR): 30.3 µM (inactive)
GI50 (SNB-75): 36.5 µM (inactive)
GI50 (DU-145): 41.3 µM (inactive)
GI50 (SF-268): 53.6 µM (inactive)
GI50 (MDA-MB-231): > 100 µM (inactive)
GI50 (MOLT-4): 22.4 µM (inactive)
GI50 (HOP-62): 29.4 µM (inactive)
GI50 (KM12): 12 µM (inactive)
GI50 (OVCAR-4): 15.2 µM (inactive)
GI50 (BT-549): 37.1 µM (inactive)
GI50 (LOX IMVI): 25.1 µM (inactive)
GI50 (T47D): 24.8 µM (inactive)
GI50 (SK-MEL-5): 18.6 µM (inactive)
GI50 (EKVX): 45.9 µM (inactive)
GI50 (HOP-92): 67.1 µM (inactive)
GI50 (SK-MEL-2): 18 µM (inactive)
GI50 (SF-295): 34 µM (inactive)
GI50 (SK-MEL-28): 52 µM (inactive)
GI50 (CCRF-CEM): 28.1 µM (inactive)

C/C(=N\NC(=O)c1cccnc1)c1cccc(/C(C)=N/NC(=O)c2cccnc2)n1
GI50 (SNB-19): 3.56 µM (inactive)
GI50 (SW-620): 2.78 µM (inactive)
GI50 (OVCAR-5): 2.08 µM (inactive)
GI50 (SN12C): 4.81 µM (inactive)
GI50 (UACC-257): 3.06 µM (inactive)
GI50 (U-251): 2.06 µM (inactive)
GI50 (DLD-1): 1.95 µM (inactive)
GI50 (NCI-H460): 3.41 µM (inactive)
GI50 (KM-20L2): 2.21 µM (inactive)
GI50 (UACC-62): 2.04 µM (inactive)
GI50 (OVCAR-8): 2.43 µM (inactive)
GI50 (A549): 2.99 µM (inactive)
GI50 (ACHN): 1.48 µM (inactive)
GI50 (UO-31): 3.81 µM (inactive)
GI50 (M14): 2.85 µM (inactive)
GI50 (SK-OV-3): 4.14 µM (inactive)
GI50 (TK-10): 4.67 µM (inactive)
GI50 (NCI-H23): 7.4 µM (inactive)
GI50 (HCT-15): 3.99 µM
GI50 (SF-539): 2.36 µM (inactive)
GI50 (M19-MEL): 13.2 µM (inactive)
GI50 (SF-268): 0.867 µM (active)
GI50 (KM12): 4.85 µM (inactive)
GI50 (LOX IMVI): 2 µM (inactive)
GI50 (EKVX): 3.42 µM (inactive)
GI50 (SF-295): 4.15 µM (inactive)

CCOC(=O)N1CCC(N[C@@H]2c3cc4c(cc3[C@@H](c3cc(OC)c(O)c(OC)c3)[C@H]3C(=O)OC[C@@H]32)OCO4)CC1
GI50 (OVCAR-3): 6.12 µM (inactive)
GI50 (SNB-19): 1.05 µM (active)
GI50 (K562): 2 µM (inactive)
GI50 (SW-620): 2.19 µM (inactive)
GI50 (UACC-257): 6.55 µM (inactive)
GI50 (U-251): 1 µM (active)
GI50 (DLD-1): 6.68 µM (inactive)
GI50 (NCI-H460): 0.0352 µM (active)
GI50 (CAKI-1): 0.647 µM (active)
GI50 (UACC-62): 0.771 µM (active)
GI50 (OVCAR-8): 2.18 µM (inactive)
GI50 (IGROV-1): 2.95 µM (inactive)
GI50 (ACHN): 0.289 µM (active)
GI50 (LXFL 529): 6.78 µM (inactive)
GI50 (UO-31): 1.08 µM (active)
GI50 (Malme-3M): 1.79 µM (inactive)
GI50 (HT-29): 2.63 µM (inactive)
GI50 (M14): 1.5 µM (inactive)
GI50 (SK-OV-3): 0.966 µM (active)
GI50 (786-0): 0.764 µM (active)
GI50 (NCI-H23): 0.501 µM (active)
GI50 (COLO 205): 6 µM (inactive)
GI50 (HCT-15): 0.771 µM
GI50 (HCT-116): 2.7 µM (inactive)
GI50 (A498): 0.262 µM (active)
GI50 (SNB-75): 2.18 µM (inactive)
GI50 (M19-MEL): 2.07 µM (inactive)
GI50 (SF-268): 2.73 µM (inactive)
GI50 (HOP-62): 0.853 µM (active)
GI50 (KM12): 2.07 µM (inactive)
GI50 (SNB-78): 16 µM (inactive)
GI50 (LOX IMVI): 1.01 µM (active)
GI50 (SK-MEL-5): 1.12 µM (active)
GI50 (EKVX): 1.97 µM (inactive)
GI50 (HOP-92): 0.895 µM (active)
GI50 (SK-MEL-2): 6.03 µM (inactive)
GI50 (SF-295): 0.597 µM (active)
GI50 (SK-MEL-28): 9.29 µM (inactive)
GI50 (CCRF-CEM): 0.465 µM (active)
